From patent US20040110821A1, “GAL3 receptor antagonists for the treatment of affective disorders” (priority 2002, published 2004)
Values joined by “and” are separate entries in the source; they are usually repeats but may differ in a detail not shown here. Equal values may be shown once. Marks after values point to notes of the source that are not given here.

Test system: Male Sprague-Dawley rats
Experiment: Rat Forced Swim Test (FST)
Format: in vivo
Details: for overall profile in the Forced Swim Test (conclusion in words): rat, in vivo
[1] = 3 mg/kg p.o., single administration 1 hr before 5 min test
[2] = 10 mg/kg p.o., single administration 1 hr before 5 min test
[3] = 30 mg/kg p.o., single administration 1 hr before 5 min test
[4] = 1 mg/kg p.o., single administration 1 hr before 5 min test
[5] = 3 mg/kg p.o., single administration 24 hours before the test
[6] = 3 mg/kg p.o., single administration 1 hr before 5 min test, listed as EX22
[7] = 10 mg/kg p.o., single administration 1 hr before 5 min test, listed as EX22
[8] = 30 mg/kg p.o., single administration 1 hr before 5 min test, listed as EX22
[9] = 5 mg/kg p.o., single administration 1 hr before 5 min test
[10] = 10 mg/kg p.o., single administration 1 hr before 5 min test, listed as Fluox
[11] = 10 mg/kg p.o., single administration 1 hr before 5 min test, listed as fluoxetine
[12] = 10 mg/kg p.o., single administration 24 hours before the test

| Structure (SMILES) | Climbing [1] | Diving [1] | Immobility [1] | Swimming [1] | Climbing [2] | Diving [2] | Immobility [2] | Swimming [2] | Climbing [3] | Diving [3] | Immobility [3] | Swimming [3] | overall profile in the Forced Swim Test (conclusion in words) | also measured |
| --- | --- | --- | --- | --- | --- | --- | --- | --- | --- | --- | --- | --- | --- | --- |
| O=C1C(=Nc2ccc(Br)cc2)c2ccccc2N1c1ccccc1 [Example 98, 3-[(4-BROMOPHENYL)IMINO]-1-PHENYL-1,3-DIHYDRO-2H-INDOL-2-ONE] | no significant difference in the number of climbing counts | not significantly altered | significantly decreased immobility | significantly increased swimming | no significant difference in the number of climbing counts | not significantly altered | significantly decreased immobility | significantly increased swimming | no significant difference in the number of climbing counts | not significantly altered | significantly decreased immobility | significantly increased swimming | produces a profile in the modified Lucki version of the FST resembling that of the clinically established antidepressant fluoxetine | – |
| O=C1C(=Nc2ccc(C(F)(F)F)cc2)c2ccccc2N1c1ccccc1 [Example 95, 1-PHENYL-3-[[4-(TRIFLUOROMETHYL)PHENYL]IMINO]-1,3-DIHYDRO-2H-INDOL-2-ONE] | did not significantly alter swimming, climbing, immobility or diving behavior | did not significantly alter swimming, climbing, immobility or diving behavior | did not significantly alter swimming, climbing, immobility or diving behavior | did not significantly alter swimming, climbing, immobility or diving behavior | – | – | significantly increased rat immobility | significantly decreased swim behavior | – | – | significantly increased rat immobility | significantly decreased swim behavior | does not produce antidepressant-like actions in the forced swim test | – |
| O=C1C(=Nc2cc(Cl)cc(Cl)c2)c2ccccc2N1c1ccccc1 [Example 103, 3-[(3,5-DICHLOROPHENYL)IMINO]-1-PHENYL-1,3-DIHYDRO-2H-INDOL-2-ONE] | not significantly altered | not significantly altered | did not significantly alter immobility | did not significantly alter swimming behavior | not significantly altered | not significantly altered | did not significantly alter immobility | did not significantly alter swimming behavior | not significantly altered | not significantly altered | significant decrease in immobility | significantly greater increase in swimming behavior | has antidepressant-like properties | – |
| CN(C)c1cc(Nc2ccc(Cl)c(Cl)c2)nc(N2CCN(Cc3ccccc3)CC2)n1 [EX151] | 2.4 ± 0.5 counts | 0.3 ± 0.2 counts | 38 ± 2.0^a counts | 19.5 ± 1.5^e counts | 2.2 ± 0.5 counts | 0.3 ± 0.2 counts | 39 ± 1.8^b counts | 18.9 ± 1.5^e counts | – | – | – | – | – | Climbing [4]: 2.3 ± 0.6 counts; Diving [4]: 0.2 ± 0.2 counts; Immobility [4]: 41 ± 2.0 counts; Swimming [4]: 16.8 ± 1.4^d counts |
| O=C1C(=Nc2cc(Cl)cc(Cl)c2)c2ccccc2N1c1ccccc1 [EX103] | – | – | – | 13.2 ± 1.9 counts | – | – | – | – | – | – | – | – | – | – |
| CN(C)c1cc(Nc2ccc(Cl)c(Cl)c2)nc(N2CCN(Cc3ccccc3)CC2)n1 [Example 151] | not significantly altered | not significantly altered | significantly decreased immobility | significantly increased swimming | not significantly altered | not significantly altered | significantly decreased immobility | significantly increased swimming | – | – | – | – | produces behavioral effects in the FST in rats that resemble those of antidepressants | Climbing [4]: not significantly altered; Diving [4]: not significantly altered; Immobility [4]: did not significantly alter immobility; Swimming [4]: significantly increased swimming |
| O=C1/C(=N\c2ccc(Cl)c(Cl)c2)c2ccccc2N1c1ccsc1 [Example 272, (3Z)-3-[(3,4-DICHLOROPHENYL)IMINO]-1-(3-THIENYL)-1,3-DIHYDRO-2H-INDOL-2-ONE] | – | – | – | – | – | – | – | – | – | – | – | – | has the profile of an antidepressant-like | Climbing [5]: not significantly altered; Diving [5]: not significantly altered; Immobility [5]: significantly decreased immobility; Swimming [5]: significant increase in swimming behavior |
| Cc1ccc(Nc2cc(N3CCCCC3)nc(N(C)CCc3ccccc3)n2)cc1 [Example 22] | 2.0 ± 0.6 counts | not significantly altered | 50 ± 0.9 counts | did not significant alter swimming behavior | 2.9 ± 0.5 counts | not significantly altered | significant decrease in immobility | significant increase in swimming | significant increase in climbing | not significantly altered | significant decrease in immobility | significantly greater increase in swimming behavior | has antidepressant-like properties | Diving [6]: 0.4 ± 0.4 counts; Swimming [6]: 7.6 ± 0.5 counts; Diving [7]: 0.4 ± 0.3 counts; Immobility [7]: 41 ± 1.3^c counts; Swimming [7]: 15.3 ± 0.8^g counts; Climbing [8]: 5.2 ± 1.0^a counts; Diving [8]: 0.0 ± 0.0 counts; Immobility [8]: 31 ± 2.8^b counts; Swimming [8]: 23.2 ± 2.0^f counts |
| CNCCC(Oc1ccc(C(F)(F)F)cc1)c1ccccc1 (stereo not shown) [Fluoxetine, fluoxetine, reference compound] | – | – | – | – | – | – | – | – | – | – | – | – | – | Climbing [9]: not significantly altered; Diving [9]: not significantly altered; Immobility [9]: did not significantly alter immobility; Swimming [9]: did not significantly alter swimming; Climbing (10 mg/kg i.p., single injection 1 h before 5 min test): did not significantly alter climbing counts; Immobility [10]: 38 ± 2.3^a counts and 34 ± 2.3^b counts and 34 ± 3.0^a counts and 34 ± 3.3^b counts and 38 ± 1.3^b counts and 39 ± 1.7^d counts and 38 ± 2.2 counts; Swimming [10]: 19.8 ± 1.8^e counts and 21.8 ± 1.4^c counts and 22.8 ± 2.2^c counts and 21.3 ± 1.8^d,e counts and 21.6 ± 1.1^e counts and 19.2 ± 1.2^e counts and 20.0 ± 1.5^c counts; Diving (10 mg/kg p.o., single administration 1 hr before 5 min test, listed as fluoxet-ine): not significantly altered; Diving [11]: not significantly altered; Immobility [11]: significantly decreased immobility; Swimming [11]: significant increase in swimming behavior; Climbing [12]: not significantly altered; Diving [12]: not significantly altered; Immobility [12]: significantly decreased immobility; Swimming [12]: significant increase in swimming behavior |
